# Source: patent US20040170669A1, “Feed rations and methods of feeding growing ruminants” (priority 2002, published 2004)
# Marks after values point to notes of the source that are not given here.
# Experiments:
# [1] = 112-day feeding trial: growing beef cattle fed bermudagrass hay plus molasses-based supplements with corn gluten meal or Alimet; assay type: in vivo, Angus-Brahman crossbred cattle; details: for Liquid supplement refusal: molasses based supplement remaining from last feeding: one value per feeding date; for BCS change (0-112 days): body condition score; for Added gain: over control; for TDN consumed: total digestible nutrients
# Experimental: An experiment was conducted to study the effect of increasing quantities of methionine from corn gluten meal, an 88% free acid solution of 2-hydroxy-4-(methylthio)butanoic acid sold under the trademark Alimet® (Novus International, Inc., St. Louis, Mo.), on the performance of growing beef cattle fed bermuda grass hay supplemented with molasses-based supplements. The experiment evaluated the effects of adding corn gluten meal or Alimet® to diets of hay supplemented with molasses-based supplements fed to growing beef cattle.
# This experiment evaluated corn gluten meal and Alimet® fed to growing beef cattle at four levels to provide 0, 2, 4, and 6 gm/day of added bypass total sulfur amino acids (TSAA) assuming a 40% bypass of Alimet®. An […] treatment was formulated to provide 8 gm/day of added bypass TSAA from Alimet®. Both TSAA sources were provided in a liquid supplement slurry containing 82% fortified molasses (fortified with ‘12% crude protein, minerals, vitamins) and 18% ground corn or corn gluten meal. Corn gluten meal replaced corn in the supplement keeping the proportion of dry ingredients in the supplement similar across TSAA sources and levels. All supplements were offered to growing cattle to provide 3.28 lb/day of total digestible nutrients (TDN). Supplements were formulated to provide adequate nitrogen in the form of rumen degradable intake protein (DIP) with 0.18 lb DIP provided for each pound of TDN. Much of the DIP in supplements was provided by urea.
# This experiment was conducted at the Santa Fe Beef Unit located near Gainesville. Thirty-two pens (4 head/pen) of Angus-Brahman crossbred cattle (9-12 months of age) were assigned randomly within sex and breed type. The calves averaged 610 lb and calves were in excellent body condition (BCS 5.8) at the start of the trial. Each pen was assigned two steers and two heifers. These 32 pens were randomly assigned to the 8 treatments. Each pen was a two-acre pasture and most grass was grazed off at the start of the trial but warm weather allowed some grass growth during February and March. Molasses slurries were fed on two days each week (equivalent amount for 3 or 4 days at each feeding) at the equivalent daily rate. Molasses slurries were hand mixed in each pen and fed in open troughs. Alimet® was pre-weighed in the laboratory and mixed in the supplement of the assigned pen at each feeding. Bermuda grass hay was offered ad libitum in hay rings outside (no shelter) and molasses slurries were limit fed during the 112-day trial (December thru April). Hay not consumed was collected, weighed, sampled (dry matter analyzed), and removed from the pens every 6 to 8 weeks during the trial. Water and a mineral-vitamin supplement were offered ad libitum.
# Supplement consumption, hay consumption, full weight, shrunk weight (beginning and end only), height, body condition, and blood urea (2 calves/pen) were measured at 28-day intervals during the 112-day trial. Supplement ingredients were sampled twice monthly and each hay bale was weighed and sampled prior to feeding. Supplement ingredients were analyzed for dry matter, organic matter, crude protein, bypass protein, amino acids, and minerals. Hay samples were analyzed for dry matter, organic matter, crude protein, amino acids, in vitro organic matter digestibility, neutral detergent fiber, and minerals.
# [2] = 0 to 6 month old calves, hay plus compound feed; cited from earlier work
# [3] = 2 gm bypass TSAA/d (Alimet 5.7 g/d)
# [4] = 4 gm bypass TSAA/d (Alimet 11.4 g/d)
# [5] = 6 gm bypass TSAA/d (Alimet 17 g/d)
# [6] = 8 gm bypass TSAA/d (Alimet 22.7 g/d)
smiles,measurement,setting,value
"CSCCC(O)C(=O)O (centres unmarked) [Alimet, 2-hydroxy-4-(methylthio)butanoic acid]","Daily gain, 0-28 days (full wt)",[1]; [3],1.58 lb/d
same,"Daily gain, 0-112 days (full wt)",[1]; [3],1.61 lb/d
same,"Daily gain, 1-113 days (shrunk wt)",[1]; [3],1.35^bc lb/d
same,"Daily gain, 28-56 days (full wt)",[1]; [3],1.92 lb/d
same,"Daily gain, 56-84 days (full wt)",[1]; [3],1.09 lb/d
same,"Daily gain, 84-112 days (full wt)",[1]; [3],1.90 lb/d
same,"Feed consumed, Hay",[1]; [3],11.23^b lb/d DM
same,"Feed consumed, Supplement",[1]; [3],4.51^a lb/d DM
same,"Feed consumed, Total",[1]; [3],15.74^b lb/d DM
same,"Feed efficiency, Gain/TDN",[1]; [3],.149^acd
same,"Feed efficiency, Gain/feed DM",[1]; [3],.087^c
same,Height change (0-112 days),[1]; [3],2.73 in.
same,"Daily gain, 0-28 days (full wt)",[1]; [4],1.88 lb/d
same,"Daily gain, 0-112 days (full wt)",[1]; [4],1.53 lb/d
same,"Daily gain, 1-113 days (shrunk wt)",[1]; [4],1.31^ab lb/d
same,"Daily gain, 28-56 days (full wt)",[1]; [4],1.46 lb/d
same,"Daily gain, 56-84 days (full wt)",[1]; [4],.99 lb/d
same,"Daily gain, 84-112 days (full wt)",[1]; [4],1.82 lb/d
same,"Feed consumed, Hay",[1]; [4],10.49^b lb/d DM
same,"Feed consumed, Supplement",[1]; [4],4.51^a lb/d DM
same,"Feed consumed, Total",[1]; [4],14.99^b lb/d DM
same,"Feed efficiency, Gain/TDN",[1]; [4],.149^acd
same,"Feed efficiency, Gain/feed DM",[1]; [4],.088^c
same,Height change (0-112 days),[1]; [4],2.45 in.
same,"Daily gain, 0-28 days (full wt)",[1]; [5],1.77 lb/d
same,"Daily gain, 0-112 days (full wt)",[1]; [5],1.69 lb/d
same,"Daily gain, 1-113 days (shrunk wt)",[1]; [5],1.44^bc lb/d
same,"Daily gain, 28-56 days (full wt)",[1]; [5],1.68 lb/d
same,"Daily gain, 56-84 days (full wt)",[1]; [5],1.40 lb/d
same,"Daily gain, 84-112 days (full wt)",[1]; [5],1.98 lb/d
same,"Feed consumed, Hay",[1]; [5],11.04^b lb/d DM
same,"Feed consumed, Supplement",[1]; [5],4.45^a lb/d DM
same,"Feed consumed, Total",[1]; [5],15.49^b lb/d DM
same,"Feed efficiency, Gain/TDN",[1]; [5],.159^ad
same,"Feed efficiency, Gain/feed DM",[1]; [5],.094^a
same,Height change (0-112 days),[1]; [5],2.80 in.
same,"Daily gain, 0-28 days (full wt)",[1]; [6],1.24 lb/d
same,"Daily gain, 0-112 days (full wt)",[1]; [6],1.52 lb/d
same,"Daily gain, 1-113 days (shrunk wt)",[1]; [6],1.31^ab lb/d
same,"Daily gain, 28-56 days (full wt)",[1]; [6],1.49 lb/d
same,"Daily gain, 56-84 days (full wt)",[1]; [6],.93 lb/d
same,"Daily gain, 84-112 days (full wt)",[1]; [6],2.48 lb/d
same,"Feed consumed, Hay",[1]; [6],10.49^b lb/d DM
same,"Feed consumed, Supplement",[1]; [6],4.08^b lb/d DM
same,"Feed consumed, Total",[1]; [6],14.57^ab lb/d DM
same,"Feed efficiency, Gain/TDN",[1]; [6],.154^d
same,"Feed efficiency, Gain/feed DM",[1]; [6],.091^a
same,Height change (0-112 days),[1]; [6],2.79 in.
same,Liquid supplement refusal: molasses based supplement remaining from last feeding,"[1]; Alimet 5.7 g/d, pen 1",25 pounds
same,Liquid supplement refusal: molasses based supplement remaining from last feeding,"[1]; Alimet 11.4 g/d, pen 8",35 pounds
same,Liquid supplement refusal: molasses based supplement remaining from last feeding,"[1]; Alimet 17 g/d, pen 5",15 pounds
same,Liquid supplement refusal: molasses based supplement remaining from last feeding,"[1]; Alimet 22.7 g/d, pen 4, feeding date 2.19",40 pounds
same,Liquid supplement refusal: molasses based supplement remaining from last feeding,"[1]; Alimet 22.7 g/d, pen 4, feeding date 12.18",20 pounds
same,Liquid supplement refusal: molasses based supplement remaining from last feeding,"[1]; Alimet 22.7 g/d, pen 4, feeding date 12.22",25 pounds
same,Liquid supplement refusal: molasses based supplement remaining from last feeding,"[1]; Alimet 22.7 g/d, pen 4, feeding date 12.26",30 pounds
same,Liquid supplement refusal: molasses based supplement remaining from last feeding,"[1]; Alimet 22.7 g/d, pen 4, feeding date 12.29",35 pounds
same,Liquid supplement refusal: molasses based supplement remaining from last feeding,"[1]; Alimet 22.7 g/d, pen F, feeding date 1.22",20 pounds
same,Liquid supplement refusal: molasses based supplement remaining from last feeding,"[1]; Alimet 22.7 g/d, pen F, feeding date 3.01",35 pounds
same,BCS change (0-112 days),[1]; [3],+.14
same,BCS change (0-112 days),[1]; [4],+.09
same,BCS change (0-112 days),[1]; [5],+.18
same,BCS change (0-112 days),[1]; [6],+.08
same,Added gain,[1]; [3],.17 lb/d
same,Added gain,[1]; [4],.13 lb/d
same,Added gain,[1]; [5],.26 lb/d
same,Added gain,[1]; [6],.13 lb/d
same,TDN consumed,[1]; [3],9.21^b lb/d
same,TDN consumed,[1]; [4],8.84^b lb/d
same,TDN consumed,[1]; [5],9.13^b lb/d
same,TDN consumed,[1]; [6],8.56^ab lb/d
CSCCC(O)C(=O)[O-].CSCCC(O)C(=O)[O-].[Ca+2] (centres unmarked) [calcium salt of 2-hydroxy-4-(methylthio)butanoic acid],Increase of average daily weight gain over control calves,[2],8-10%
